From article PMC3898987 (Bioorganic & Medicinal Chemistry, 2013)
Where a chain is given by its changes, count along the chain named. “And” between values parts separate entries of the source, which are not always exact repeats. Identical values can stand only once.

Key:
[1] = target: T1, 5-HT3A receptor F130A (Homo sapiens, UniProt P46098, F125A); assay: FlexStation membrane potential dye functional assay, HEK293 cells; type: cell-based; parameters: expressed in transfected cells; host or cells: HEK293; conditions: 5-HT3A F130A
T1 sequence (P46098 24-478 F125A): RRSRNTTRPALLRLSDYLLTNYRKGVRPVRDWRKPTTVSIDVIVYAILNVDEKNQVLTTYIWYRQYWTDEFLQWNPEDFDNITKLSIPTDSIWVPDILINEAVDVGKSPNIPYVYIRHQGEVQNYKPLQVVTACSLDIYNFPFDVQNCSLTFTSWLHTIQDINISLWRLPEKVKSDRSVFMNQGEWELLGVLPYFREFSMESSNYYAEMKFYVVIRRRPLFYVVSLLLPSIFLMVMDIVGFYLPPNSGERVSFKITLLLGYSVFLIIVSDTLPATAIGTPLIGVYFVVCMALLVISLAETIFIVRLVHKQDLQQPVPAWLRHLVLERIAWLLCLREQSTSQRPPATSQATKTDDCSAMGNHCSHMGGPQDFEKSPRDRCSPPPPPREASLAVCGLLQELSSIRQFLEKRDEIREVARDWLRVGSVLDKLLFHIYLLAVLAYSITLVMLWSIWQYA
Procedure: (§1) Human embryonic kidney (HEK) 293 cells were cultured on 90 mm tissue culture plates at 37 °C and 7% CO2 in a humidified atmosphere. They were grown in DMEM:F12 (Dulbecco’s Modified Eagle’s Medium/Nutrient Mix F12 (1:1)) with GlutaMAX I™ containing 10% fetal calf serum and passaged when confluent. […] For FlexStation assays, transfected cells were plated on 96-well plates and incubated 1–2 days before assay.
(§2) Fluorometric studies were undertaken using a FlexStation® (Molecular Devices, Sunnyvale, CA, USA) as previously described.[11]
(§3) Fluorescence was measured every 2 s for 200 s. […] Concentration–response and inhibition curves were obtained for each mutant, and the fluorescence values were normalized to the maximal response.

[2] = target: T2, WT 5-HT3AB receptor (Homo sapiens, UniProt O95264+P46098); assay: as above; type: cell-based; parameters: expressed in transfected cells; host or cells: HEK293
T2 sequence (P46098 24-478): T1 sequence (P46098 24-478 F125A) with A102F
T2 sequence (O95264 22-441): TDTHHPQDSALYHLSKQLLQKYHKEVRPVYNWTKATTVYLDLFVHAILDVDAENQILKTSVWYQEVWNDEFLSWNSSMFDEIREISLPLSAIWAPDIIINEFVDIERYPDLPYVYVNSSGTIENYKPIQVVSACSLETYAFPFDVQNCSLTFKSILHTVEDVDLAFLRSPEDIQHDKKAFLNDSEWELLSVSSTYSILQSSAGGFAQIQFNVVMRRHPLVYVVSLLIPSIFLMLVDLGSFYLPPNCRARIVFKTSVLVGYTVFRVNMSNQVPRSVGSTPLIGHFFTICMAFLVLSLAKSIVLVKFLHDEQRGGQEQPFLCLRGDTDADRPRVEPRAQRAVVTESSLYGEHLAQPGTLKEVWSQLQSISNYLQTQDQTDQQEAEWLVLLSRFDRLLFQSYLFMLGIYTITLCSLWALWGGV
Procedure: as §1, §2, §3

[3] = target: T1, 5-HT3A receptor F130A; assay: radioligand saturation binding, transfected HEK293 membranes; conditions: [3H]-palonosetron saturation, 5-HT3A F130A, 4 °C, 24 h
Procedure: (§4) Human embryonic kidney (HEK) 293 cells were cultured on 90 mm tissue culture plates at 37 °C and 7% CO2 in a humidified atmosphere. They were grown in DMEM:F12 (Dulbecco’s Modified Eagle’s Medium/Nutrient Mix F12 (1:1)) with GlutaMAX I™ containing 10% fetal calf serum and passaged when confluent. For radioligand binding studies, cells in 90 mm dishes were transfected at 60–70% confluency using polyethyleneimine and incubated for 3–4 days before use. For FlexStation assays, transfected cells were plated on 96-well plates and incubated 1–2 days before assay. […]
(§5) Eight-point binding assays were performed to produce saturation binding curves. […] Radioactive counts were measured using a Beckman LS6000SC liquid scintillation counter (Fullerton, California, USA).
(§6) Data were analyzed by iterative curve fitting using GraphPad Prism v5 (San Diego, CA) according to the following equation: B=Bmax[L]^n/kdn+[L]^n where B is the amount of bound radioligand, Bmax is the maximum specific binding at equilibrium, [L] is the concentration of radioligand, Kd is the equilibrium dissociation constant of the radioligand, and n is the Hill coefficient.

[4] = target: T3, 5-HT3A receptor D165K (Homo sapiens, UniProt P46098, D160K); assay: as above; conditions: [3H]-palonosetron saturation, 5-HT3A D165K, 4 °C, 24 h
T3 sequence (P46098 24-478 D160K): T1 sequence (P46098 24-478 F125A) with A102F, D137K
Procedure: as §4, §5, §6

[5] = target: T4, 5-HT3AB receptor, 5-HT3B subunit F130A (Homo sapiens, UniProt O95264+P46098, F123A); assay: as above
T4 sequence (P46098 24-478): T1 sequence (P46098 24-478 F125A) with A102F
T4 sequence (O95264 22-441 F123A): T2 sequence (O95264 22-441) with F102A
Procedure: as §4, §5, §6

[6] = inhibition of 5-HT (EC50 concentration) response, 45 min preincubation

NCCc1c[nH]c2ccc(O)cc12 [5-HT, serotonin]
Hill Coefficient ([1]; 5-HT concentration-response): 1.5 ± 0.2 | Hill Coefficient ([2]; 5-HT concentration-response): 1.3 and 1.3 ± 0.2

O=C1c2cccc3c2[C@H](CCC3)CN1[C@@H]1CN2CCC1CC2 [Palonosetron]
IC50 [1, 6]: 4.4 ± 1.8 nM | IC50 [2, 6]: 0.88 ± 0.15 nM | Kd [3]: 0.67 ± 0.12 nM | Kd [4]: 0.36 ± 0.02 nM | Kd ([5]; [3H]-palonosetron saturation, 5-HT3AB with 5-HT3B F130A, 4 °C, 24 h): 0.48 ± 0.03 nM | increase in Kd compared to wild type ([5]; [3H]palonosetron, F130A (5-HT3B) containing heteromers vs WT 5-HT3AB): twofold
